Test systems include A549; UACC-62; NCI/ADR-RES; A498; MOLT-4; OVCAR-3; TK-10; SK-MEL-2; SNB-75; SF-295; SN12C; Hs-578T; HCT-116; OVCAR-8; SNB-19; NCI-H460; ACHN; CCRF-CEM; HCC 2998.
Assay in all cases: NCI-60 cell line screen, 48 h

The values that follow come from ChEMBL document CHEMBL1201862, “PubChem BioAssay data set” (2004).

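Dose response: 5 concentrations. Exposure: 48 h. Format: 96-well plates. Endpoint: linear interpolation; highest concentration if not reached. GI50 marks 50% less growth.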 The source made the active and inactive calls. Rule as the data show it: active = GI50 up to about 1.1 µM and inactive = higher. Some results are limits rather than exact numbers.

As to `Cc1ccc(/N=N/c2c(O)ccc3ccccc23)c(C)c1`, the GI50 with A549, in the experiment on UACC-62, in the experiment on NCI/ADR-RES, in the experiment with A498, in the experiment on MOLT-4 and with OVCAR-3 was > 100 µM (inactive) in each case. Moreover, the GI50 in the experiment with TK-10, with SK-MEL-2, with SNB-75, with SF-295, with SN12C and in the experiment on Hs-578T was > 100 µM (inactive) in each case. Besides, the GI50 in the experiment with HCT-116, in the experiment with OVCAR-8 and in the experiment with SNB-19 was > 100 µM (inactive) throughout.

Consider `c1cc2c(cc1C(N1CCNCC1)N1CCNCC1)OCO2`, for which the GI50 with A549, with UACC-62, in the experiment with NCI-H460, with NCI/ADR-RES, in the experiment on A498 and in the experiment on OVCAR-3 was > 100 µM (inactive) throughout. For the same compound, the GI50 with TK-10, in the experiment on SK-MEL-2, with SNB-75, in the experiment on SF-295, in the experiment on SN12C and in the experiment on Hs-578T was > 100 µM (inactive) throughout. Further, the GI50 in the experiment with ACHN, with HCT-116, with OVCAR-8 and in the experiment on SNB-19 was > 100 µM (inactive) each time.

Regarding `COc1cc2c3c(n(C)c(=O)c2cc1OC)-c1cc2c(cc1/C3=C\CCCCCBr)OCO2`, the GI50 in the experiment with A549 was 9.08 µM (inactive); with NCI-H460, 5.83 µM (inactive); in the experiment on NCI/ADR-RES it was 32.4 µM (inactive); in the experiment on A498, 14.5 µM (inactive); in the experiment on MOLT-4, 1.45 µM (inactive); in the experiment with CCRF-CEM, 2.38 µM (inactive). For the same compound, the GI50 in the experiment with TK-10 is 20.6 µM (inactive); with SK-MEL-2, 32.2 µM (inactive); with SNB-75, 12.1 µM (inactive); in the experiment with SF-295 it was 4.56 µM (inactive); in the experiment with SN12C it was 5.96 µM (inactive); with Hs-578T it was > 100 µM (inactive). In addition, the GI50 with ACHN is 4.39 µM (inactive); with OVCAR-8, 9.53 µM (inactive); in the experiment with SNB-19, 6.5 µM (inactive).

Turning to `CC(Cn1c(=O)oc2ccccc21)N(C)C` (stereo unspecified), the GI50 in the experiment on UACC-62, with NCI-H460, in the experiment on NCI/ADR-RES, with A498, with MOLT-4 and in the experiment on CCRF-CEM was > 100 µM (inactive) in each case. Besides, the GI50 in the experiment on OVCAR-3, in the experiment with TK-10, in the experiment with SK-MEL-2, in the experiment with SNB-75, in the experiment with SF-295 and in the experiment with SN12C was > 100 µM (inactive) in each case. Further, the GI50 in the experiment on Hs-578T, in the experiment on ACHN, in the experiment with HCT-116, with OVCAR-8 and with SNB-19 was > 100 µM (inactive) throughout.

Regarding `Cc1cn(C(Cc2ccccc2)OCCO)c(=O)[nH]c1=O` (stereo unspecified), the GI50 with A549, in the experiment with UACC-62, with NCI-H460, in the experiment on NCI/ADR-RES, in the experiment with A498 and in the experiment on HCC 2998 was > 100 µM (inactive) in each case. For the same compound, the GI50 in the experiment on MOLT-4, with CCRF-CEM, in the experiment with OVCAR-3, in the experiment with SK-MEL-2, in the experiment on SNB-75 and in the experiment on SF-295 was > 100 µM (inactive) in each case. The GI50 with SN12C, in the experiment on ACHN, in the experiment on HCT-116, in the experiment with OVCAR-8 and in the experiment on SNB-19 was > 100 µM (inactive) in each case.

Consider `C[n+]1c2ccccc2n2c3ccccc3c(NCCc3ccccn3)c(C#N)c21`, for which the GI50 in the experiment with A549 is 3.62 µM (inactive); with UACC-62, 2.53 µM (inactive); in the experiment with NCI-H460 it was 1.04 µM (active); in the experiment on NCI/ADR-RES, 13.8 µM (inactive); in the experiment on A498, 4.4 µM (inactive); in the experiment with MOLT-4 it was 1 µM (active). Moreover, the GI50 with CCRF-CEM is 1.25 µM (inactive); in the experiment with OVCAR-3, 2.34 µM (inactive); in the experiment with TK-10 it was 1.14 µM (inactive); in the experiment with SK-MEL-2, 2.61 µM (inactive); with SNB-75 it was 1.38 µM (inactive); in the experiment on SF-295 it was 2.32 µM (inactive). Moreover, the GI50 in the experiment with SN12C is 1.23 µM (inactive); in the experiment on Hs-578T, 2.81 µM (inactive); in the experiment on ACHN it was 1.49 µM (inactive); with HCT-116, 0.933 µM (active); in the experiment on OVCAR-8, 1.18 µM (inactive); with SNB-19, 3.33 µM (inactive).

In the case of `CC[C@]1(Cc2ccc(OC)c(OC)c2)C=[N+]([O-])O[C@H](OC2CCCCC2c2ccccc2)[C@@H]1OC(C)=O` (stereo partly specified), the GI50 with A549 is 41.5 µM (inactive); with UACC-62 it was 56.1 µM (inactive); in the experiment on NCI-H460, 37.5 µM (inactive); in the experiment with NCI/ADR-RES, 41.8 µM (inactive); in the experiment with A498, > 100 µM (inactive); with HCC 2998, 43.5 µM (inactive). Moreover, the GI50 in the experiment on MOLT-4 was 17.3 µM (inactive); in the experiment with CCRF-CEM, 23.2 µM (inactive); in the experiment with OVCAR-3, 33.4 µM (inactive); in the experiment with TK-10 it was > 100 µM (inactive); with SK-MEL-2, 46.1 µM (inactive); in the experiment on SNB-75, 32.2 µM (inactive). The GI50 with SF-295 was 37.9 µM (inactive); in the experiment with SN12C, 36.6 µM (inactive); in the experiment on ACHN it was 30.5 µM (inactive); in the experiment with HCT-116, 34.1 µM (inactive); with OVCAR-8 it was 50.6 µM (inactive); with SNB-19, 92.5 µM (inactive).

On to `Cc1ccc([N+](=O)[O-])cc1S(=O)(=O)Nc1ccc(C2=NN(c3ccc([N+](=O)[O-])cc3[N+](=O)[O-])C(c3ccccc3O)C2)cc1` (stereo unspecified), for which the GI50 with A549 is 31.4 µM (inactive); in the experiment on NCI/ADR-RES it was 27.9 µM (inactive); with MOLT-4, 12.7 µM (inactive); in the experiment with CCRF-CEM, 25 µM (inactive); in the experiment with OVCAR-3, 24.9 µM (inactive); with TK-10 it was 43.7 µM (inactive). Further, the GI50 in the experiment on SK-MEL-2 was 20.7 µM (inactive); with SNB-75 it was 40.4 µM (inactive); in the experiment with SF-295 it was 29.9 µM (inactive); with SN12C, 18 µM (inactive); with Hs-578T, 42.7 µM (inactive); in the experiment on ACHN, 35.1 µM (inactive). In addition, the GI50 in the experiment on HCT-116 was 29 µM (inactive); in the experiment on OVCAR-8, 38.4 µM (inactive); in the experiment on SNB-19 it was 47.1 µM (inactive).

In the case of `O=C1CSc2nc3ccccc3n2/C=N\N1`, the GI50 in the experiment with A549, in the experiment on UACC-62, in the experiment on NCI-H460, with NCI/ADR-RES, in the experiment on A498 and in the experiment with HCC 2998 was > 100 µM (inactive) in each case. In addition, the GI50 in the experiment with MOLT-4, with CCRF-CEM, in the experiment on TK-10, in the experiment with SK-MEL-2, in the experiment on SF-295 and in the experiment on SN12C was > 100 µM (inactive) in each case. The GI50 in the experiment with ACHN, in the experiment on HCT-116, with OVCAR-8 and in the experiment with SNB-19 was > 100 µM (inactive) each time.

Regarding `CN1CCN(/C(N)=C(\C#N)C(=O)Nc2ccccc2)CC1`, the GI50 in the experiment with A549, with UACC-62, in the experiment on NCI-H460, in the experiment on NCI/ADR-RES, with A498 and in the experiment on HCC 2998 was > 100 µM (inactive) throughout. Also, the GI50 with MOLT-4, in the experiment on CCRF-CEM, in the experiment with OVCAR-3, in the experiment with SK-MEL-2, in the experiment with SNB-75 and in the experiment on SF-295 was > 100 µM (inactive) in each case. Further, the GI50 in the experiment on SN12C, with ACHN, with HCT-116, in the experiment with OVCAR-8 and with SNB-19 was > 100 µM (inactive) in each case.

`O=C1C2c3[nH]c4ccccc4c3C3CCC(c4ccccc4)CC3C2C(=O)N1c1ccccc1` (stereo unspecified): the GI50 with A549 is > 100 µM (inactive); with UACC-62, > 100 µM (inactive); in the experiment with NCI-H460 it was > 100 µM (inactive); with A498, > 10 µM (inactive); with HCC 2998 it was > 100 µM (inactive); in the experiment with MOLT-4, 83.8 µM (inactive). Further, the GI50 is 44.3 µM (inactive) in the experiment with CCRF-CEM; > 100 µM (inactive) with OVCAR-3; > 100 µM (inactive) in the experiment on TK-10; 27.3 µM (inactive) with SNB-75; > 100 µM (inactive) with SF-295; > 100 µM (inactive) in the experiment with SN12C. Further, the GI50 in the experiment on ACHN, in the experiment on OVCAR-8 and with SNB-19 was > 100 µM (inactive) each time.

In the case of `OCC1C2CCC3(OCCO3)C12` (stereo unspecified), the GI50 in the experiment with A549 was > 100 µM (inactive); with UACC-62 it was 17.6 µM (inactive); in the experiment with NCI-H460 it was > 100 µM (inactive); in the experiment on NCI/ADR-RES, > 100 µM (inactive); in the experiment with HCC 2998 it was > 100 µM (inactive); in the experiment with MOLT-4, > 100 µM (inactive). The GI50 in the experiment with CCRF-CEM, in the experiment with OVCAR-3, with TK-10, in the experiment on SK-MEL-2, in the experiment with SNB-75 and in the experiment on SF-295 was > 100 µM (inactive) throughout. Moreover, the GI50 with SN12C, with ACHN, in the experiment with HCT-116, in the experiment with OVCAR-8 and in the experiment on SNB-19 was > 100 µM (inactive) throughout.
